What was measured:
human Mu receptor = target: T1, human Mu receptor (Homo sapiens, UniProt P35372); experiment: μ-Receptor Binding Assay ([3H]DAMGO, SPA); settings: human Mu receptor transfected CHO-K1 cell membranes, 1.0 nM [3H]DAMGO
T1 construct: expressed in transfected cells; host or cells: CHO-K1
Method: μ-Receptor Binding Assay:
The human Mu receptor transfected CHO-K1 cell membranes were incubated for 45 min at 22° C. with 1.0 nM [^3H]DAMGO, 1.0 mg of wheat germ agglutinin-coated SPA beads and various concentrations of test compounds in a final volume of 200 μl of 50 mM Tris-HCl buffer pH 7.4 containing 5 mM MgCl2. Non-specific binding was determined by the addition of 1 μM unlabeled DAMGO. After the reaction, the assay plate was centrifuged at 1,000 rpm for 1 min and then the radioactivity was measured by a Liquid Scintillation Counter.
(§1) Each percent […] binding thus obtained is graphed as a function of compound concentration. A sigmoidal curve is used to determine 50% bindings (i.e., IC50 values).

human ORL1 receptor = target: T2, human ORL1 receptor (Homo sapiens, UniProt P41146); experiment: ORL1-Receptor Binding Assay ([3H]nociceptin, SPA)
T2 construct: expressed in transfected cells; host or cells: HEK-293
Method: ORL1-Receptor Binding Assay:
The human ORL1 receptor transfected HEK-293 cell membranes were incubated for 45 min at 22° C. with 0.4 nM [^3H]nociceptin, 1.0 mg of wheat germ agglutinin-coated SPA beads and various concentrations of test compounds in a final volume of 200 μl of 50 mM HEPES buffer pH 7.4 containing 10 mM MgCl2 and 1 mM EDTA. Non-specific binding was determined by the addition of 1 μM unlabeled nociceptin. After the reaction, the assay plate was centrifuged at 1,000 rpm for 1 min and then the radioactivity was measured by a Liquid Scintillation Counter.
as §1

T2 sequence (P41146 whole entry): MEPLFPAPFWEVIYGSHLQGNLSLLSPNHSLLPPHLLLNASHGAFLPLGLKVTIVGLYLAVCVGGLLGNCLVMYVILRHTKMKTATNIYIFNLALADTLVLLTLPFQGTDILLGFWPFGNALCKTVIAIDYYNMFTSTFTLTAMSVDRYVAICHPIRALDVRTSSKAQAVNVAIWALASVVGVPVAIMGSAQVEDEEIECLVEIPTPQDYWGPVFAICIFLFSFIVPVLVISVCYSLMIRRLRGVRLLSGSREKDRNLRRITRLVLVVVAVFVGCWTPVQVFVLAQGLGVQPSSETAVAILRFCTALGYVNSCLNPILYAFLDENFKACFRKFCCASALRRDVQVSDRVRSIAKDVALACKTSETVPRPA
T1 sequence (P35372 whole entry): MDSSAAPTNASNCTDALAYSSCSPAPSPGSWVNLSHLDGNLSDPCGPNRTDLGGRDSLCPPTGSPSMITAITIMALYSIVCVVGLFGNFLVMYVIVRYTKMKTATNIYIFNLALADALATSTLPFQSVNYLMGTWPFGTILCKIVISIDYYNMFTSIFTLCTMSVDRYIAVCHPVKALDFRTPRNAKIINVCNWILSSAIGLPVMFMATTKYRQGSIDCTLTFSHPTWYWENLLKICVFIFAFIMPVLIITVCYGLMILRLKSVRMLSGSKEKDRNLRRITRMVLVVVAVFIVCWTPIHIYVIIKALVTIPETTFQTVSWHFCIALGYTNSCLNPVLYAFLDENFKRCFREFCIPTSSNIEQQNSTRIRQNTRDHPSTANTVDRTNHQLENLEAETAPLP

O=c1oc2ccccc2n1CCCN1CCC2(CCc3ccccc32)CC1 [Example 9, 2,3-Dihydro-1′-[3-(2-oxo-1,3-benzoxazol-3(2H)-yl)propyl]spiro[1H-indene-1,4′-piperidine]]
IC50 (human Mu receptor): 871 nM | IC50 (human ORL1 receptor): 89 nM | selectivity of binding affinity, ORL-1 receptor versus mu-receptor (in words) (human ORL1 receptor; comparison of ORL1 and mu binding assays): selective affinity for ORL-1 receptor over mu-receptor

— US20030078278A1, “Spiropiperidine compounds as ligands for ORL-1 receptor” (Pfizer Inc., priority 2001, published 2003)
